# Source: patent US10179914B2, “CDC25A inhibitor for the treatment of drug resistant cancer or for the prevention of tumor relapse” (INSERM (INSTITUT NATIONAL DE LA SANTÉ ET DE LA RECHERCHE …, priority 2014, dated 2019)
# Legend:
# [1] = system: FLT3-ITD primary AML cells from patients; test: Differentiation of FLT3-ITD primary AML samples; type: cell-based, human
# Experimental: (a) 4 primary samples from patients carrying the FLT3-ITD mutation (ITD #1-4) were treated for 6 days with IRC-083864 (100 nM), and the expression of CD14 (upper panel) and CD15 (lower panel) was followed by flow cytometry analysis. (b) Quantification (mean±SEM, n=4) of CD14 and CD15 expression in response to IRC-083864. (c) The morphology of primary cells from patients used in (a) was analyzed by microscopy after 6 days and 9 days of treatment with IRC-083864. Original magnification ×100.
# Patient samples. Patient AML samples were obtained after informed consent in accordance with the Declaration of Helsinki and stored at the HIMIP collection. According to the French law, HIMIP collection has been declared to the Ministry of Higher Education and Research (DC 2008-307 collection 1) and obtained a transfer agreement (AC 2008-129) after approbation by ethical committees (Comité de Protection des Personnes Sud-Ouest et Outremer II and APHP ethical committee). […]
# Flow cytometry. Apoptotic cells were detected with Annexin V-FITC detection kit from BD Pharmingen (San Diego, Calif., USA) according to the manufacturer instructions. […] Data were collected on a LSRII or a LSRFortessa cytometer (BD Biosciences), and analyzed with FlowJo software. […]
# [2] = system: TF-1 cells (FLT3 wild type); test: Cell proliferation, trypan blue counting, TF-1; type: cell-based, human; details: 200 nM
# Experimental: (a) MV4-11 and MOLM-14 FLT3-ITD positive cells, KG1, HL-60 and TF-1 FLT3 wild type cells, and K562 FLT3 negative cells were cultured in the presence of the CDC25 inhibitor IRC-083864 (200 nM). Cells were harvested each day and counted after trypan blue coloration. The graph represents three independent experiments.
# Cell lines and reagents. Human acute myeloid leukemia cell lines MOLM-14 (Matsuo Y et al, Leukemia 1997) (kindly provided by Martin Carroll, University of Pennsylvania, Philadelphia, Pa., USA) MV4-11, K562 (ACC-102 and ACC-10, DSMZ, Braunschweig, Germany) and FLT3-ITD-expressing murine BaF3 cells were cultured in RPMI 1640 medium (Gibco, Life Technologies, Carlsbad, Calif., USA) supplemented with 10% fetal bovine serum (Sigma, Saint Louis, Calif., USA). TF-1 (ATCC-CRL2003) cells were cultured in RPMI 1640 medium with 10% fetal bovine serum and GM-CSF 2 ng/ml. Concerning MOLM-14 cell line, the presence of a monoallelic 21 bp FLT3-ITD mutation and of an MLL-containing ins(11; 9)(q23;p22p23) were verified (Hematology laboratory of Toulouse University Hospital, Prof E. Delabesse and Dr I. Luquet). KG1 and HL-60 (ACC-14 and ACC-3, DSMZ) cell lines were grown in Iscove's Modified Dulbecco's Medium (IMDM, Gibco) plus 20% FBS. All cells were grown in the presence of 100 units/ml of penicillin and streptomycin (Invitrogen) at 37° C. and 5% CO2.
# MOLM-14 cells = test: MOLM-14 xenograft in NSG mice, differentiation in vivo; details: 5 mg/kg/week i.p., two weeks
# Experimental: (a) NSG mice were injected with 2 millions MOLM-14 cells, and treated with IRC-083864 at 5 mg/kg/week i.p. (n=4) or with vehicle buffer (n=4) as described in the Methods section. Bone marrow cells were extracted after dissection after two weeks and the expression of CD14 and CD15 on human blasts was followed by flow cytometry analysis. (b) Quantification (mean±SEM, n=4) of CD14 and CD15 expression in response to IRC-083864. (c) Morphological analyses of human cells used in (a). Original magnification ×100.
# In vivo experiments. Animals were used in accordance to a protocol reviewed and approved by the Institutional Animal Care and User Ethical Committee of the UMS006 and Region Midi-Pyrénées (Approval#13-U1037-JES08). NOD/LtSz-scid IL-2Rγchainnull (NSG) mice (Sanchez P V et al) were produced at the Genotoul Anexplo platform in Toulouse (France) using breeders obtained from The Charles River Laboratory. Mice were housed in sterile conditions using HEPA filtered micro-isolators and fed with irradiated food and acidified water. Transplanted mice were treated with antibiotics (enrofloxacin) for the duration of the experiment. […] Adult mice (6 or 7-week old) were treated with 20 mg/kg Busulfan (Busilvex, Pierre Fabre, France) by i.p. administration 24 hours before injection of leukemic cells. Cultured MOLM-14 cells were washed in PBS and cleared of aggregates and debris using a 0.2 mm cell filter, and suspended in PBS at a final concentration of 2 million cells per 200 μL of PBS per mouse for i.v. injection. IRC-083864 (5 mg/kg/week) was then administrated to leukemic mice by i.p. injection. Daily monitoring of mice for symptoms of disease (ruffled coat, hunched back, weakness and reduced motility) determined the time of animal euthanasia. Cell differentiation was monitored after two IRC-083864 injections: mice were humanely killed in accordance with IACUC protocols. Bone marrow (mixed from tibias and femurs) were dissected, flushed in PBS and made into single cell suspensions for analysis by flow cytometry and cytospins.
smiles,measurement,setting,value
Cc1nc2c(s1)C(=O)C=C(NCCCN(C)CCCNC1=CC(=O)c3nc(-c4cc(F)ccc4F)oc3C1=O)C2=O [IRC-083864],expression of CD14,"[1]; 100 nM, 6 days",increased
same,morphology of primary cells,[1]; days 6 and 9,monocytic-like morphological nuclear changes
same,proliferation of TF-1,[2],did not decrease
same,CD11b expression on human myeloid cells in bone marrow,MOLM-14 cells,no change
same,CD14 expression on MOLM-14 cells from bone marrow,MOLM-14 cells,increased expression
same,CD15 expression on MOLM-14 cells from bone marrow,MOLM-14 cells,unchanged expression
same,morphology of cytospun human bone marrow cells,MOLM-14 cells,monocytic-like nuclear changes
